Source: article PMC12520178, “Turn-engineering tunes the conformational rigidity of β-hairpin AMPs in achieving membrane selectivity and killing drug-resistant ESKAPE pathogens” (Chemical Science, 2025)
Values after ≈ are worked out from the molar mass of the structure shown. Read-outs that look alike come from different tables or passages of the source. Where a SMILES comes first, the peptide text is derived from it. Bridges are numbered along the chain shown (N, C = ends). [ ]: non-standard residue; d: D form. NMeR = CN[C@@H](CCCNC(=N)N)C(=O)O; dNMeR = CN[C@H](CCCNC(=N)N)C(=O)O

How the values were obtained:
Escherichia coli = assay type: cell-based
Pseudomonas aeruginosa = assay type: cell-based
Acinetobacter baumannii = assay type: cell-based
Klebsiella pneumoniae = assay type: cell-based
Staphylococcus aureus = test: microbe, parasite or virus in culture; assay type: cell-based
Proteinase K = Proteinase K (Parengyodontium album, UniProt P06873); test: Proteolytic digestion with Proteinase K; assay type: in vitro ADME; details: 100 µM peptide, 1X TBS pH 7.5, ratio 1:200, 37 °C, HPLC, 0 to 720 min
Sequence of Proteinase K (P06873 106-384): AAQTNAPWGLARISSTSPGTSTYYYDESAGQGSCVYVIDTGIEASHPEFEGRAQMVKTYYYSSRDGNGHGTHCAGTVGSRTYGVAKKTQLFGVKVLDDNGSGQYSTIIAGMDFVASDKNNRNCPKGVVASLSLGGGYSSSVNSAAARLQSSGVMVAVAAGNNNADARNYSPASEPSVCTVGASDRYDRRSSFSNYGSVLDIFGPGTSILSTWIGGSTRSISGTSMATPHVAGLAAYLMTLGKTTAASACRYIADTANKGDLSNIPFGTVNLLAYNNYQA
Experimental: Figure S15: Proteolytic degradation profiles of a. 4d and b. 4f after incubation with Proteinase K. The five overlaid chromatograms represent […] different time-points: 0 min, 2 min, 60 min, 480 min and 720 min. The identity of the peptide at different time points were monitored using MALDI-TO F.
Figure S16: a. PI uptake by A. baumannii and S. aureus, when treated with different concentrations of 4f for 10 min, monitored using flow-cytometry. b. SEM images of untreated control cells and 5 times of […]
Radial Distribution Function
The radial distribution function (g(r)) was computed to investigate the local density of specific lipid headgroups around key peptide residues. […]
The interaction energy between the peptide and membrane components was computed to quantify the binding affinity and identify the driving forces for the interaction. Using GROMACS, the production trajectories were re-analyzed by defining energy groups for the protein and different membrane components. […]
The metabolic stability of peptides (1,1d,1f and 3,3d,3f) were evaluated against two proteases-chymotrypsin and trypsin at a concentration of 100 µM. The metabolic stability of 4f was evaluated by incubating 100 µM of peptide with a more promiscuous enzyme i.e. Proteinase K. Peptides were incubated with different enzyme to peptide ratio for different time intervals at 37 ° C. […]

human red blood cells [1] = details: red cells of human
[2] = test system: polymyxin B-resistant A. baumannii; details: induced polymyxin B-resistant A. baumannii
[3] = test system: polymyxin B-resistant P. aeruginosa; details: induced polymyxin B-resistant P. aeruginosa
[4] = test system: human peripheral blood mononuclear cells (PBMCs); details: 24 h, 40
[5] = Acute in-vivo toxicity assessment; details: mice
[6] = Rapid equilibrium dialysis (RED) plasma protein binding; details: plasma spiked with 100 μM peptide, buffer pH 7.4, 37 °C, 4 h, HPLC
human red blood cells [7] = details: cited from earlier work
Text: These motifs were chosen based on their ability to induce 81% (-D-Ala-NMeArg–) and 92% (-D-Val-NMeArg-) β-hairpin folded fractions within a 12-mer linear peptide in aqueous solution.[24]

human red blood cells [8] = test: Hemolysis assay against human red blood cells; details: ≥10% hemolysis against human RBCs; 4% (v/v) hRBCs in PBS, 1.5 h at 37 °C, 405 nm; n = 3

SMILES	MIC90 (Escherichia coli)	MIC (μM) ec (Escherichia coli)	MIC (μM) pa (Pseudomonas aeruginosa)	MIC (μM) ab (Acinetobacter baumannii)	MIC (μM) kp (Klebsiella pneumoniae)	MIC (μM) sa (Staphylococcus aureus)	protection against proteolysis (Proteinase K)	MHC10 (μM), minimum hemolytic concentration (human red blood cells [1])	MIC [2]	MIC [3]	median viability of PBMCs [4]	signs of acute toxicity ([5]; 10 mg kg^−1, intraperitoneally, monitored till 72 h)	signs of acute toxicity ([5]; 20 mg kg^−1, intraperitoneally, at 48 h, transient)	signs of acute toxicity ([5]; 40 mg kg^−1, intraperitoneally)	mortality ([5]; 10, 20 and 40 mg kg^−1, intraperitoneally)	plasma protein binding [6]	hemolysis (toxicity) (human red blood cells [7])	MIC90 (Escherichia coli; against E. coli, microbroth dilution, 5x10^5 cfu/mL, 20-24 h at 37 °C, turbidity 600 nm, n = 5, median)	MHC10 (μM), minimum hemolytic concentration (human red blood cells [8])
CC[C@@H](C)[C@@H](NC(=O)[C@@H](CCCNC(=N)N)N(C)C(=O)[C@H](C)NC(=O)[C@@H](Cc1ccc(O)cc1)NC(=O)[C@H](NC(=O)[C@H](NC(=O)[C@@H](CCCNC(=N)N)NC(=O)[C@@H](Cc1ccccc1)NC(=O)[C@H](NC(=O)[C@@H](Cc1c[nH]c2ccccc12)NC(=O)[C@H](N)CCCCN)[C@H](C)O)C(C)C)[C@H](C)O)C(=O)N[C@@H](C(=O)N[C@H](Cc1ccc(O)cc1)C(=O)N[C@H](CCCNC(=N)N)C(=O)N[C@H](CCCNC(=N)N)C(=O)N[C@@H](C(=O)N[C@H](CCCNC(=N)N)C(N)=O)[C@H](C)O)[C@H](C)O [4f] (H-[dK][dW][dT][dF][dR][dV][dT][dY]A[dNMeR][dI][dT][dY][dR][dR][dT][dR]-NH2)	0.4 µM (≈ 0.915 µg/mL)	0.4 µM (≈ 0.915 µg/mL)	1.2 µM (≈ 2.75 µg/mL)	1.6 µM (≈ 3.66 µg/mL)	1.6 µM (≈ 3.66 µg/mL)	0.8 µM (≈ 1.83 µg/mL)	total protection against proteolysis	50 µM	1.6 µM (≈ 3.66 µg/mL)	2.4 µM (≈ 5.49 µg/mL)	~85%	no signs of toxicity	mild symptoms such as wrinkled skin and loss in body weight	Visible signs of toxicity such as wrinkled skin, poor motility, and loss in body weight	none of the doses led to mortality	very high plasma protein binding	–	–	–
CC(C)[C@@H]1NC(=O)CNC(=O)[C@H](CCCNC(=N)N)NC(=O)[C@H](C(C)C)NC(=O)[C@H](CCCNC(=N)N)NC(=O)[C@H](C)NC(=O)[C@H](Cc2ccc(O)cc2)NC(=O)[C@H](C(C)C)NC(=O)[C@@H](NC(=O)[C@H](Cc2c[nH]c3ccccc23)NC(=O)[C@@H](N)CCCNC(=N)N)CSSC[C@@H](C(=O)N[C@@H](Cc2c[nH]c3ccccc23)C(=O)O)NC(=O)[C@H](CCCNC(=N)N)NC(=O)[C@H](CCCNC(=N)N)NC(=O)[C@H](Cc2ccc(O)cc2)NC(=O)[C@H](CCCNC(=N)N)NC1=O [compound 1, reference compound] (H-RWCVYARVRGVRYRRCW-OH; disulfide 3-16)	1.2 µM (≈ 2.74 µg/mL)	1.2 µM (≈ 2.74 µg/mL)	3.12 µM (≈ 7.13 µg/mL)	0.8 µM (≈ 1.83 µg/mL)	0.8 µM (≈ 1.83 µg/mL)	1.6 µM (≈ 3.65 µg/mL)	–	–	–	–	–	–	–	–	–	–	no measurable hemolysis	–	–
CC(C)[C@@H]1NC(=O)[C@H](CCCNC(=N)N)NC(=O)[C@H](Cc2ccccc2)NC(=O)[C@@H](NC(=O)[C@H](Cc2c[nH]c3ccccc23)NC(=O)[C@H](CCCNC(=N)N)NC(=O)[C@@H](N)CCCNC(=N)N)CSSC[C@@H](C(=O)N[C@@H](CCCNC(=N)N)C(N)=O)NC(=O)[C@H](CCCCN)NC(=O)[C@H](CCCNC(=N)N)NC(=O)[C@H](Cc2ccc(O)cc2)NC(=O)[C@@H]2CSSC[C@H](NC1=O)C(=O)N[C@@H](Cc1ccc(O)cc1)C(=O)N[C@H](C(C)C)C(=O)N(C)[C@@H](CCCNC(=N)N)C(=O)N[C@@H](Cc1ccccc1)C(=O)N2 [3b] (H-RRWCFRVCY[dV][NMeR]FCYRKCR-NH2; disulfide 4-17, 8-13)	–	–	–	–	–	–	–	–	–	–	–	–	–	–	–	–	–	0.9 µM (≈ 2.26 µg/mL)	6.25 µM
